Reference: paper PMC11585924, “Direct measurements of neurosteroid binding to specific sites on GABAA receptors” (British journal of pharmacology, 2024)

Tests used:
ELIC-α1^W246LGABAAR = ELIC-α1^W246LGABAAR (Homo sapiens, UniProt P14867, W273L); experiment: biochemical; format: binding
Procedure: ELIC-α1GABAAR was expressed and purified according to a previously published protocol ([Q. Chen et al., 2018]). The purified protein was aliquoted and stored at −80°C. Mutagenesis was performed as described in previous reports ([Kinde et al., 2016]) by oligonucleotide-directed mutagenesis using Phu polymerase (Thermo Fisher Scientific, Waltham, MA, USA) verified by sequencing. ELIC-α1GABAAR was expressed in OverExpress™ C43(D3) E. coli, derived from Rosetta™(DE3) cells under double selection with kanamycin and chloramphenicol for ELIC-α1GABAAR.
One hundred microlitres of purified ELIC-α1GABAAR (0.3 μM in Buffer A + 0.015% DDM) was transferred into a 50-μl window quartz cuvette (Starna Cells, Atascadero, CA, USA), which was placed in a cuvette holder maintained at 4°C. […] Two microlitres of NaI (AK Scientific, Union City, CA, USA; 5-M stock prepared in 0.1-Mm sodium hydrosulfite [Sigma-Aldrich, St. Louis, MO, USA]) was added to the protein (final concentration = 100 mM) and incubated for 10 min to reduce the fluorescence emission from hydrophilic tryptophans. To measure the concentration–dependent effects of NS on tryptophan fluorescence, 1 μl of NS from each 100× stock solution was sequentially added to the NaI-equilibrated protein and thoroughly mixed to achieve concentrations from 0.01 to 50 μM. […]

α1β3 GABAA receptors = biological target: T1, α1β3 GABAA receptors (Homo sapiens, UniProt P14867+P28472); experiment: Two-electrode voltage clamp of GABA-elicited currents in Xenopus oocytes; format: cell-based; details: low GABA; wild-type α1β3
T1 construct: expressed in transfected cells; host or cells: Xenopus laevis oocytes, cRNA injected 5:1 (α1:β3)
T1 sequence (P14867 28-456): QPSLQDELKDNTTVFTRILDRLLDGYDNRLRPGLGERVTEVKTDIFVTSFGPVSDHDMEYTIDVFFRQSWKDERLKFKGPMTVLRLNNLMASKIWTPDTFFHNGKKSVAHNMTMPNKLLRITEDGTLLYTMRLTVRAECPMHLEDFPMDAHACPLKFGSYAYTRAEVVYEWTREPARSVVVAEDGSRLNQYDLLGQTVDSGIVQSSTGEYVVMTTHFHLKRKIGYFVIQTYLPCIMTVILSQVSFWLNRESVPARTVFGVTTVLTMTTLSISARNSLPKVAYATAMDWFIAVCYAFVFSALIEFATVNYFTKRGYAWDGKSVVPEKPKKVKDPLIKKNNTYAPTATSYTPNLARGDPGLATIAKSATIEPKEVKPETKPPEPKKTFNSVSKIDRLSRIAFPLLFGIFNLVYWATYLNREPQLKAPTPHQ
T1 sequence (P28472 26-473): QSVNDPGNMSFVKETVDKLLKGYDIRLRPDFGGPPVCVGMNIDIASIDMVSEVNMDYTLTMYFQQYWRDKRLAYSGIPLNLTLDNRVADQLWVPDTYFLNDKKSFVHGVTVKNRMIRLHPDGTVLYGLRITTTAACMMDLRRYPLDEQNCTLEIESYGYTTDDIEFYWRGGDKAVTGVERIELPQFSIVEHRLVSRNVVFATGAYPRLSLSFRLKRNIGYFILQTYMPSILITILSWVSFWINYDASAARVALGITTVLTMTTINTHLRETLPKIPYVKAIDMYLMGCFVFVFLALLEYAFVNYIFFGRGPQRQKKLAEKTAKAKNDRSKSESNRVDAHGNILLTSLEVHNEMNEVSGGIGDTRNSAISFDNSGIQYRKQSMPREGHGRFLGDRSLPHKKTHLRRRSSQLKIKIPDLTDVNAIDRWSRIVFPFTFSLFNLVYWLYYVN
Procedure: Receptor expression and electrophysiological recordings were conducted as described in detail previously ([Sugasawa et al., 2020]). In brief, α1β3 GABAA receptors were expressed in oocytes from the African clawed frog (X. laevis). The wild-type α1 and β3 subunits were of human origin (Genbank accession numbers NM_000806.5 and NM_000814.5, respectively). The α1 clone containing the Q-to-L mutation to the classic neurosteroid binding site ([Hosie et al., 2006]) was of rat origin. (The glutamine residue in ELIC-α1GABAAR is Q242, whereas the corresponding residue in rat α1 is Q241. For simplicity, the residue is referred to as Q242 for both rat and ELIC-α1GABAAR.) The oocytes were purchased as quarter ovaries from Xenopus1 (Dexter, MI, USA). Following digestion in 2% w/v (mg·ml^−1) collagenase A, the oocytes were injected with a total of 12 ng cRNA per oocyte in a 5:1 ratio (α1:β3) and incubated at 15°C for 2–3 days prior to electrophysiological recordings in ND96 (96-mM NaCl, 2-mM KCl, 1.8-mM CaCl2, 1-mM MgCl2, 5-mM HEPES; pH 7.4) supplemented with 100 U·ml^−1 penicillin and 100 μg·ml^−1 streptomycin.
Electrophysiological recordings were conducted at ≈22°C using standard two-electrode voltage clamp. The voltage and current electrodes (G120F-4, OD = 1.20 mm, ID = 0.69 mm; Warner Instruments, Hamden, CT, USA) were filled with 3-M KCl and had resistances of 0.3–1 MΩ. The oocytes were clamped at −60 mV. The chamber (RC-1Z; Warner Instruments) was perfused with ND96 at 5–8 ml·min^−1. Solutions were gravity-applied. The current responses were amplified with an Axoclamp 900A (Molecular Devices, San Jose, CA, USA) or OC-725C amplifier (Warner Instruments), digitized with a Digidata 1200 series digitizer (Molecular Devices) and stored on PC hard drive using pClamp (Molecular Devices; RRID:SCR_011323). Current amplitudes were determined using Clampfit (Molecular Devices).
A standard experiment consisted of a several-minute long applications of GABA followed immediately by a co-application of GABA + modulator and a wash in GABA. For normalization purposes, each cell was exposed to the combination of saturating (1-mM) GABA + 50-μM propofol, assumed to fully activate all receptors in the cell ([Eaton et al., 2016]).

ELIC-α1^W246LGABAAR, sequence (P14867 other isoform, or with tags, fused parts or gaps W273L): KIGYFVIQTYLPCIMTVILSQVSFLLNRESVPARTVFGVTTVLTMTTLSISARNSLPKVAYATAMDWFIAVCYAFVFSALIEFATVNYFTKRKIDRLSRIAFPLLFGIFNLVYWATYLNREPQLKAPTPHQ
ELIC-α1^W246LGABAAR, sequence (P0C7B7 1-198, further chain): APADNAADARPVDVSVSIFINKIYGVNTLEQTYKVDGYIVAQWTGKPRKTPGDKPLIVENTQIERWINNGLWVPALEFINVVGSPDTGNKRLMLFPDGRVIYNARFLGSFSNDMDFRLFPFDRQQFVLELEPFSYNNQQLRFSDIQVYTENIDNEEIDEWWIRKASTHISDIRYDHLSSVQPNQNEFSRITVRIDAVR

In the case of `CC(=O)[C@H]1CC[C@H]2[C@@H]3CC[C@H]4C[C@@H](O)CC[C@]4(C)[C@H]3CC[C@]12C` [Epi-AlloP, epi-allopregnanolone], the IC50 (ELIC-α1^W246LGABAAR) is reported as 340 ± 130 nM and the “potentiation of GABA-elicited currents” value (α1β3 GABAA receptors) is reported as “do not”.
